According to article PMC11852049, “Impact of Hydrophobic, Hydrophilic, and Mucus-Binding Motifs on the Therapeutic Potential of Ceftazidime Analogs for Pulmonary Administration” (Antibiotics, 2025):
Values after ≈ are worked out from the molar mass of the structure shown.

How the values were obtained:
Pseudomonas aeruginosa = assay: microbe, parasite or virus in culture; type: cell-based; conditions: for MIC: Pseudomonas aeruginosa, 24 h, read-out: MIC Pa
Escherichia coli = assay: microbe, parasite or virus in culture; type: cell-based; conditions: 24 h, read-out: MIC Ec
[1] = test system: Burkholderia pseudomallei; assay: microbe, parasite or virus in culture; type: cell-based; conditions: for MIC: Burkholderia pseudomallei, 24 h, read-out: MIC Bp; for MIC Bp: 24 h at 37 °C, cation-adjusted Mueller–Hinton II broth, mean of two replicates
[2] = Transepithelial transport assay (Papp), HBEC air–liquid interface cultures on Transwells; conditions: human, Papp (apparent permeability), mean ± standard deviation, apical to basal over 24 h, approx. 5 mg/mL apical
[3] = parameters: method as in PMID 29096171, PMID 7629560; conditions: delivered via injection; cited from earlier work
[4] = test system: Staphylococcus aureus Newman; assay: microbe, parasite or virus in culture; type: cell-based; conditions: for MIC: Staphylococcus aureus, NEWMAN, 24 h, read-out: MIC Sa
[5] = compound set 2, three donors (L8 excluded)

Compound: CC(C)(O/N=C(\C(=O)N[C@@H]1C(=O)N2C(C(=O)[O-])=C(C[n+]3ccccc3)CS[C@H]12)c1csc(N)n1)C(=O)O [Ceftazidime pentahydrate, ceftazidime pentahydrate, reference compound]
- MIC (Pseudomonas aeruginosa): 6 µg/mL
- MIC (Escherichia coli): 0.4 µg/mL
- MIC [1]: 3 µg/mL
- Papp at 24 h ([2]; compound set 1, three donors): 3.36 ± 0.18 ×10⁻⁶ cm/s
- Papp at 24 h [2, 5]: 2.54 ×10⁻⁶ cm/s
- penetration ratio (PELF-to-total plasma concentration) [3]: 20–30%
- MIC [4]: 13 µg/mL

Compound: CCCCNC(=O)C(C)(C)O/N=C(/C(=O)N[C@@H]1C(=O)N2C(C(=O)[O-])=C(C[n+]3ccccc3)CS[C@H]12)c1csc(N)n1 [Compound 1, n-butyl-ceftazidime]
- MIC (Pseudomonas aeruginosa): 200 µg/mL (≈ 332 µM)
- MIC (Escherichia coli): 100 µg/mL (≈ 166 µM)
- MIC [1]: 200 µg/mL (≈ 332 µM)
- Papp at 24 h ([2]; compound set 1, three donors): 1.91 ± 0.45 ×10⁻⁶ cm/s
- MIC [4]: 6 µg/mL (≈ 9.97 µM)

Compound: CC(C)(O/N=C(/C(=O)N[C@@H]1C(=O)N2C(C(=O)[O-])=C(C[n+]3ccccc3)CS[C@H]12)c1csc(N)n1)C(=O)NCCc1ccccc1 [Compound 3]
- MIC (Pseudomonas aeruginosa): 200 µg/mL (≈ 308 µM)
- MIC (Escherichia coli): 100 µg/mL (≈ 154 µM)
- MIC [1]: 200 µg/mL (≈ 308 µM)
- Papp at 24 h [2, 5]: 4.65 ± 0.86 ×10⁻⁶ cm/s
- MIC [4]: 3 µg/mL (≈ 4.62 µM)

Compound: CC(C)(O/N=C(/C(=O)N[C@@H]1C(=O)N2C(C(=O)[O-])=C(C[n+]3ccccc3)CS[C@H]12)c1csc(N)n1)C(=O)NCCc1cc(O)c(O)cc1Cl [Compound 4]
- MIC Pa (Pseudomonas aeruginosa): < 60 µg/mL
- MIC (Pseudomonas aeruginosa): 19 µg/mL (≈ 26.5 µM)
- MIC (Escherichia coli): < 15 µg/mL
- MIC Bp [1]: < 60 µg/mL
- MIC [1]: 1.6 µg/mL (≈ 2.23 µM)
- Papp at 24 h [2, 5]: 2.94 ± 0.63 ×10⁻⁶ cm/s
- MIC [4]: 38 µg/mL (≈ 53.1 µM)

Compound: CC(C)(O/N=C(/C(=O)N[C@@H]1C(=O)N2C(C(=O)[O-])=C(C[n+]3ccccc3)CS[C@H]12)c1csc(N)n1)C(=O)NCCCS(=O)(=O)c1ccccc1 [Compound 5]
- MIC (Pseudomonas aeruginosa): 200 µg/mL (≈ 275 µM)
- MIC (Escherichia coli): < 15 µg/mL
- MIC [1]: 150 µg/mL (≈ 206 µM)
- Papp at 24 h [2, 5]: 2.71 ± 0.93 ×10⁻⁶ cm/s
- MIC [4]: 13 µg/mL (≈ 17.9 µM)

Compound: CC(C)(O/N=C(/C(=O)N[C@@H]1C(=O)N2C(C(=O)[O-])=C(C[n+]3ccccc3)CS[C@H]12)c1csc(N)n1)C(=O)NCCCCCCOCCCCc1ccccc1 [Compound 6]
- MIC (Pseudomonas aeruginosa): 200 µg/mL (≈ 257 µM)
- MIC (Escherichia coli): 100 µg/mL (≈ 129 µM)
- MIC [1]: > 200 µg/mL
- Papp at 24 h [2, 5]: 2.45 ± 0.21 ×10⁻⁶ cm/s
- MIC [4]: 3 µg/mL (≈ 3.86 µM)

Compound: COCCOCCOCCNC(=O)C(C)(C)O/N=C(/C(=O)N[C@@H]1C(=O)N2C(C(=O)[O-])=C(C[n+]3ccccc3)CS[C@H]12)c1csc(N)n1 [Compound 7]
- MIC (Pseudomonas aeruginosa): > 200 µg/mL
- MIC (Escherichia coli): 100 µg/mL (≈ 145 µM)
- MIC [1]: > 200 µg/mL
- Papp at 24 h [2, 5]: 3.6 ± 1.1 ×10⁻⁶ cm/s
- MIC [4]: 50 µg/mL (≈ 72.3 µM)

Compound: COCCOCCOCCOCCOCCNC(=O)C(C)(C)O/N=C(/C(=O)N[C@@H]1C(=O)N2C(C(=O)[O-])=C(C[n+]3ccccc3)CS[C@H]12)c1csc(N)n1 [Compound 8]
- MIC Pa (Pseudomonas aeruginosa): ≥ 100 µg/mL
- MIC (Pseudomonas aeruginosa): > 200 µg/mL
- MIC (Escherichia coli): ≥ 100 µg/mL
- MIC Bp [1]: ≥ 100 µg/mL
- MIC [1]: > 200 µg/mL
- Papp at 24 h ([2]; compound set 1, three donors): 2.23 ± 0.22 ×10⁻⁶ cm/s
- MIC Sa [4]: ≥ 100 µg/mL
- MIC [4]: 100 µg/mL (≈ 128 µM)

Compound: COCCOCCOCCOCCOCCOCCOCCOCCNC(=O)C(C)(C)O/N=C(/C(=O)N[C@@H]1C(=O)N2C(C(=O)[O-])=C(C[n+]3ccccc3)CS[C@H]12)c1csc(N)n1 [Compound 9]
- MIC Pa (Pseudomonas aeruginosa): ≥ 100 µg/mL
- MIC (Pseudomonas aeruginosa): > 200 µg/mL
- MIC (Escherichia coli): ≥ 100 µg/mL
- MIC Bp [1]: ≥ 100 µg/mL
- MIC [1]: > 200 µg/mL
- Papp at 24 h ([2]; compound set 1, three donors): 1.86 ± 0.39 ×10⁻⁶ cm/s
- MIC Sa [4]: ≥ 100 µg/mL
- MIC [4]: 200 µg/mL (≈ 219 µM)

Compound: CC(C)(O/N=C(/C(=O)N[C@@H]1C(=O)N2C(C(=O)[O-])=C(C[n+]3ccccc3)CS[C@H]12)c1csc(N)n1)C(=O)NC1C(O)O[C@H](CO)[C@@H](O)[C@@H]1O (some centres unmarked) [Compound 10]
- MIC Pa (Pseudomonas aeruginosa): < 60 µg/mL
- MIC (Pseudomonas aeruginosa): 50 µg/mL (≈ 70.6 µM)
- MIC (Escherichia coli): < 4 µg/mL
- MIC Bp [1]: < 60 µg/mL
- MIC [1]: 38 µg/mL (≈ 53.7 µM)
- Papp at 24 h [2, 5]: 2.75 ± 0.68 ×10⁻⁶ cm/s
- MIC [4]: 150 µg/mL (≈ 212 µM)

Compound: CCN(CC)CCNC(=O)C(C)(C)O/N=C(/C(=O)N[C@@H]1C(=O)N2C(C(=O)[O-])=C(C[n+]3ccccc3)CS[C@H]12)c1csc(N)n1 [Compound 11]
- MIC (Pseudomonas aeruginosa): 150 µg/mL (≈ 233 µM)
- MIC (Escherichia coli): 63 µg/mL (≈ 97.7 µM)
- MIC [1]: 75 µg/mL (≈ 116 µM)
- Papp at 24 h ([2]; compound set 1, three donors): 3.58 ± 0.5 ×10⁻⁶ cm/s
- MIC Sa [4]: < 40 µg/mL
- MIC [4]: 25 µg/mL (≈ 38.8 µM)

Compound: CN1CCN(CCNC(=O)C(C)(C)O/N=C(/C(=O)N[C@@H]2C(=O)N3C(C(=O)[O-])=C(C[n+]4ccccc4)CS[C@H]23)c2csc(N)n2)CC1 [Compound 12]
- MIC Pa (Pseudomonas aeruginosa): ≥ 100 µg/mL
- MIC (Pseudomonas aeruginosa): > 200 µg/mL
- MIC (Escherichia coli): ≥ 100 µg/mL
- MIC Bp [1]: ≥ 100 µg/mL
- MIC [1]: > 200 µg/mL
- Papp at 24 h [2, 5]: 2.6 ± 0.94 ×10⁻⁶ cm/s
- MIC Sa [4]: ≥ 100 µg/mL
- MIC [4]: > 200 µg/mL

Compound: CC(C)(O/N=C(/C(=O)N[C@@H]1C(=O)N2C(C(=O)[O-])=C(C[n+]3ccccc3)CS[C@H]12)c1csc(N)n1)C(=O)NC(CCC(=O)O)C(=O)O (some centres unmarked) [Compound 13]
- MIC (Pseudomonas aeruginosa): 200 µg/mL (≈ 296 µM)
- MIC (Escherichia coli): < 15 µg/mL
- MIC [1]: 200 µg/mL (≈ 296 µM)
- Papp at 24 h [2, 5]: 2.79 ± 0.91 ×10⁻⁶ cm/s
- MIC [4]: 200 µg/mL (≈ 296 µM)

Compound: CC(C)(O/N=C(/C(=O)N[C@@H]1C(=O)N2C(C(=O)[O-])=C(C[n+]3ccccc3)CS[C@H]12)c1csc(N)n1)C(=O)NCCNc1ccnc(N)n1 [Compound 14]
- MIC Pa (Pseudomonas aeruginosa): ≥ 100 µg/mL
- MIC (Pseudomonas aeruginosa): 100 µg/mL (≈ 147 µM)
- MIC (Escherichia coli): ≥ 100 µg/mL
- MIC Bp [1]: ≥ 100 µg/mL
- MIC [1]: > 200 µg/mL
- Papp at 24 h [2, 5]: 2.03 ± 0.6 ×10⁻⁶ cm/s
- MIC Sa [4]: ≥ 100 µg/mL
- MIC [4]: > 200 µg/mL

Compound: CC(C)(O/N=C(/C(=O)N[C@@H]1C(=O)N2C(C(=O)[O-])=C(C[n+]3ccccc3)CS[C@H]12)c1csc(N)n1)C(=O)NCCOCCOCCOCCOCCOCCNc1ccnc(N)n1 [Compound 15, PEG5-pyrimidin-2-amine-ceftazidime]
- MIC (Pseudomonas aeruginosa): > 200 µg/mL
- MIC (Escherichia coli): 38 µg/mL (≈ 42.1 µM)
- MIC [1]: 200 µg/mL (≈ 222 µM)
- Papp at 24 h ([2]; compound set 1, three donors): 1.75 ± 0.06 ×10⁻⁶ cm/s
- MIC [4]: 50 µg/mL (≈ 55.4 µM)

Compound: CC(C)(O/N=C(/C(=O)N[C@@H]1C(=O)N2C(C(=O)[O-])=C(C[n+]3ccccc3)CS[C@H]12)c1csc(N)n1)C(=O)NCCCSc1ccc(B(O)O)cc1 [Compound 16, 4-propylthiophenyl boronic acid-ceftazidime]
- MIC (Pseudomonas aeruginosa): > 200 µg/mL
- MIC (Escherichia coli): 50 µg/mL (≈ 67.6 µM)
- MIC [1]: 200 µg/mL (≈ 270 µM)
- Papp at 24 h [2, 5]: 4.9 ± 1.4 ×10⁻⁶ cm/s
- MIC [4]: 3 µg/mL (≈ 4.06 µM)

Compound: CC(C)(O/N=C(/C(=O)N[C@@H]1C(=O)N2C(C(=O)[O-])=C(C[n+]3ccccc3)CS[C@H]12)c1csc(N)n1)C(=O)NCCCS(=O)(=O)c1ccc(B(O)O)cc1 [Compound 17]
- MIC (Pseudomonas aeruginosa): 200 µg/mL (≈ 259 µM)
- MIC (Escherichia coli): 50 µg/mL (≈ 64.8 µM)
- MIC [1]: 200 µg/mL (≈ 259 µM)
- Papp at 24 h [2, 5]: 3.33 ± 0.36 ×10⁻⁶ cm/s
- MIC [4]: 13 µg/mL (≈ 16.8 µM)

Compound: CC(C)(O/N=C(/C(=O)N[C@@H]1C(=O)N2C(C(=O)[O-])=C(C[n+]3ccccc3)CS[C@H]12)c1csc(N)n1)C(=O)NCCNC(=O)c1ccc(B(O)O)cc1 [Compound 18]
- MIC Pa (Pseudomonas aeruginosa): < 60 µg/mL
- MIC (Pseudomonas aeruginosa): 50 µg/mL (≈ 67.9 µM)
- MIC Bp [1]: < 60 µg/mL
- MIC [1]: 50 µg/mL (≈ 67.9 µM)
- Papp at 24 h [2, 5]: 2.21 ± 0.45 ×10⁻⁶ cm/s
- MIC [4]: 25 µg/mL (≈ 33.9 µM)
